Measurements as given in the supplement of paper PMC10307832.

Experiments:
Assay in all cases: relative viability (nuclei count vs DMSO), 5 days (fraction); higher = more cells survive
BEN = test system: BEN
Summary of the method: (§1)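 One day after seeding in 1536-well plates, lung cancer cell lines were dosed by pin tool. Dosing was either single-drug or a fixed anchor-drug dose plus five library-drug doses (not always all listed) in √10 steps. After 5 days, nuclei were stained in one fix-and-stain step and counted on 4× images, and relative viability is the nuclei count of treated wells over that of vehicle wells, given as the median of duplicate plates.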

NCI-H838 = test system: NCI-H838
Summary of the method: as §1

SK-LU-1 = test system: SK-LU-1
Summary of the method: as §1

LOU-NH91 = test system: LOU-NH91
Summary of the method: as §1

NCI-H1437 = test system: NCI-H1437
Summary of the method: as §1

NCI-H1651 = test system: NCI-H1651
Summary of the method: as §1

NCI-H1975 = test system: NCI-H1975
Summary of the method: as §1

NCI-H1734 = test system: NCI-H1734
Summary of the method: as §1

NCI-H1563 = test system: NCI-H1563
Summary of the method: as §1

HCC-366 = test system: HCC-366
Summary of the method: as §1

COR-L23 = test system: COR-L23
Summary of the method: as §1

NCI-H2023 = test system: NCI-H2023
Summary of the method: as §1

NCI-H358 = test system: NCI-H358
Summary of the method: as §1

NCI-H441 = test system: NCI-H441
Summary of the method: as §1

NCI-H1650 = test system: NCI-H1650
Summary of the method: as §1

NCI-H1355 = test system: NCI-H1355
Summary of the method: as §1

NCI-H460 = test system: NCI-H460
Summary of the method: as §1

LU99A = test system: LU99A
Summary of the method: as §1

NCI-H2085 = test system: NCI-H2085
Summary of the method: as §1

CAL-12T = test system: CAL-12T
Summary of the method: as §1

CCN(CC)CCCCNc1ncc2cc(-c3cc(OC)cc(OC)c3)c(NC(=O)NC(C)(C)C)nc2n1 + C[C@@H](Oc1cc(-c2cnn(C3CCNCC3)c2)cnc1N)c1c(Cl)ccc(F)c1Cl [Crizotinib] (partner 1 µM)
relative viability (BEN; first compound 0.01 µM): 1.05 | relative viability (BEN; first compound 0.03162 µM): 0.85 | relative viability (BEN; first compound 0.1 µM): 0.867 | relative viability (BEN; first compound 0.3162 µM): 0.835 | relative viability (BEN; first compound 1 µM): 0.699 | relative viability (NCI-H838; first compound 0.01 µM): 0.919 | relative viability (NCI-H838; first compound 0.03162 µM): 0.84 | relative viability (NCI-H838; first compound 0.1 µM): 0.955 | relative viability (NCI-H838; first compound 0.3162 µM): 0.79 | relative viability (NCI-H838; first compound 1 µM): 0.552 | relative viability (SK-LU-1; first compound 0.01 µM): 0.908 | relative viability (SK-LU-1; first compound 0.03162 µM): 1.02 | relative viability (SK-LU-1; first compound 0.1 µM): 0.901 | relative viability (SK-LU-1; first compound 0.3162 µM): 1 | relative viability (SK-LU-1; first compound 1 µM): 0.641 | relative viability (LOU-NH91; first compound 0.01 µM): 0.733 | relative viability (LOU-NH91; first compound 0.03162 µM): 0.723 | relative viability (LOU-NH91; first compound 0.1 µM): 0.776 | relative viability (LOU-NH91; first compound 0.3162 µM): 0.747 | relative viability (LOU-NH91; first compound 1 µM): 0.725 | relative viability (NCI-H1437; first compound 0.01 µM): 1.12 | relative viability (NCI-H1437; first compound 0.03162 µM): 0.993 | relative viability (NCI-H1437; first compound 0.1 µM): 0.987 | relative viability (NCI-H1437; first compound 0.3162 µM): 1.16 | relative viability (NCI-H1437; first compound 1 µM): 0.756 | relative viability (NCI-H1651; first compound 0.01 µM): 0.925 | relative viability (NCI-H1651; first compound 0.03162 µM): 0.851 | relative viability (NCI-H1651; first compound 0.1 µM): 0.945 | relative viability (NCI-H1651; first compound 0.3162 µM): 0.909 | relative viability (NCI-H1651; first compound 1 µM): 0.828 | relative viability (NCI-H1975; first compound 0.01 µM): 1.35 | relative viability (NCI-H1975; first compound 0.03162 µM): 1.02 | relative viability (NCI-H1975; first compound 0.1 µM): 1.05 | relative viability (NCI-H1975; first compound 0.3162 µM): 0.94 | relative viability (NCI-H1975; first compound 1 µM): 0.82 | relative viability (NCI-H1734; first compound 0.01 µM): 0.652 | relative viability (NCI-H1734; first compound 0.03162 µM): 0.647 | relative viability (NCI-H1734; first compound 0.1 µM): 0.807 | relative viability (NCI-H1734; first compound 0.3162 µM): 0.719 | relative viability (NCI-H1734; first compound 1 µM): 0.667 | relative viability (NCI-H1563; first compound 0.01 µM): 0.86 | relative viability (NCI-H1563; first compound 0.03162 µM): 0.836 | relative viability (NCI-H1563; first compound 0.1 µM): 0.816 | relative viability (NCI-H1563; first compound 0.3162 µM): 0.833 | relative viability (NCI-H1563; first compound 1 µM): 0.623 | relative viability (HCC-366; first compound 0.01 µM): 0.632 | relative viability (HCC-366; first compound 0.03162 µM): 0.924 | relative viability (HCC-366; first compound 0.1 µM): 0.947 | relative viability (HCC-366; first compound 0.3162 µM): 0.741 | relative viability (HCC-366; first compound 1 µM): 0.512 | relative viability (COR-L23; first compound 0.01 µM): 0.697 | relative viability (COR-L23; first compound 0.03162 µM): 0.656 | relative viability (COR-L23; first compound 0.1 µM): 0.824 | relative viability (COR-L23; first compound 0.3162 µM): 0.584 | relative viability (COR-L23; first compound 1 µM): 0.759 | relative viability (NCI-H2023; first compound 0.01 µM): 0.646 | relative viability (NCI-H2023; first compound 0.03162 µM): 0.627 | relative viability (NCI-H2023; first compound 0.1 µM): 0.639 | relative viability (NCI-H2023; first compound 0.3162 µM): 0.725 | relative viability (NCI-H2023; first compound 1 µM): 0.655 | relative viability (NCI-H358; first compound 0.01 µM): 0.639 | relative viability (NCI-H358; first compound 0.03162 µM): 0.54 | relative viability (NCI-H358; first compound 0.1 µM): 0.728 | relative viability (NCI-H358; first compound 0.3162 µM): 0.671 | relative viability (NCI-H358; first compound 1 µM): 0.469 | relative viability (NCI-H441; first compound 0.01 µM): 0.676 | relative viability (NCI-H441; first compound 0.03162 µM): 0.897 | relative viability (NCI-H441; first compound 0.1 µM): 0.73 | relative viability (NCI-H441; first compound 0.3162 µM): 0.886 | relative viability (NCI-H441; first compound 1 µM): 0.762 | relative viability (NCI-H1650; first compound 0.01 µM): 1.03 | relative viability (NCI-H1650; first compound 0.03162 µM): 0.989 | relative viability (NCI-H1650; first compound 0.1 µM): 0.902 | relative viability (NCI-H1650; first compound 0.3162 µM): 1.02 | relative viability (NCI-H1650; first compound 1 µM): 0.698 | relative viability (NCI-H1355; first compound 0.01 µM): 1.17 | relative viability (NCI-H1355; first compound 0.03162 µM): 1.16 | relative viability (NCI-H1355; first compound 0.1 µM): 1.05 | relative viability (NCI-H1355; first compound 0.3162 µM): 1.11 | relative viability (NCI-H1355; first compound 1 µM): 1.06 | relative viability (NCI-H460; first compound 0.01 µM): 1.15 | relative viability (NCI-H460; first compound 0.03162 µM): 0.934 | relative viability (NCI-H460; first compound 0.1 µM): 1.36 | relative viability (NCI-H460; first compound 0.3162 µM): 1.07 | relative viability (NCI-H460; first compound 1 µM): 0.797 | relative viability (LU99A; first compound 0.01 µM): 0.547 | relative viability (LU99A; first compound 0.03162 µM): 0.63 | relative viability (LU99A; first compound 0.1 µM): 0.616 | relative viability (LU99A; first compound 0.3162 µM): 0.583 | relative viability (LU99A; first compound 1 µM): 0.484 | relative viability (NCI-H2085; first compound 0.01 µM): 0.983 | relative viability (NCI-H2085; first compound 0.03162 µM): 0.917 | relative viability (NCI-H2085; first compound 0.1 µM): 0.943 | relative viability (NCI-H2085; first compound 0.3162 µM): 0.895 | relative viability (NCI-H2085; first compound 1 µM): 0.817 | relative viability (CAL-12T; first compound 0.01 µM): 0.809 | relative viability (CAL-12T; first compound 0.03162 µM): 0.612 | relative viability (CAL-12T; first compound 0.1 µM): 0.553 | relative viability (CAL-12T; first compound 0.3162 µM): 0.666 | relative viability (CAL-12T; first compound 1 µM): 0.533
